Data taken from the supplement of paper PMC5579334.

What was measured:
HSC1 [1] = assay: relative IC50 (inflection point of fitted dose-response curve, CellTox-Green cytotoxicity, 72 h; top asymptote may be below 50%); higher = less potent
How it was run: (§1)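 For 72 h at 37 °C, MPNST cell lines and primary human Schwann cells were exposed in 384-well plates to five 10-fold compound dilutions. CellTox-Green, added before seeding at a final 1:1000 dilution, gave fluorescence from DNA released by disrupted cells. Signals were scaled to vehicle and positive-control wells, cultures failing plate quality control were left out, and four-parameter logistic fits were applied. Relative IC50 and drug sensitivity score were derived from the fits, with IC50 censored at the top concentration.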

HSC2 [2] = assay: as above
How it was run: as §1

ST8814 [3] = assay: as above
How it was run: as §1

STS26T [4] = assay: as above
How it was run: as §1

HS-PSS [5] = assay: relative IC50 (inflection point of fitted dose-response curve, CellTiter-Glo viability, 72 h; top asymptote may be below 50% inhibition); higher = less potent
How it was run: (§2)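 After seeding 750–1000 cells per well of MPNST cell lines or primary human Schwann cells into 384-well plates preprinted with each compound at five concentrations in 10-fold steps, plates were kept 72 h at 37 °C, 5% CO2. Viability was read as CellTiter-Glo ATP luminescence relative to vehicle and positive-control wells, with duplicates averaged where present. The data were fitted with four-parameter logistic models. Drug sensitivity score and relative IC50, censored at the top concentration, derive from the fits, and percent inhibition refers to the top concentration.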

HS-Sch-2 = assay: as above
How it was run: as §2

HSC1 [6] = assay: as above
How it was run: as §2

HSC2 [7] = assay: as above
How it was run: as §2

S1507-2 = assay: as above
How it was run: as §2

ST8814 [8] = assay: as above
How it was run: as §2

STS26T [9] = assay: as above
How it was run: as §2

YST-1 = assay: as above
How it was run: as §2

HS-PSS [10] = assay: relative IC50 (inflection point of fitted dose-response curve, CellTox-Green cytotoxicity, 72 h; top asymptote may be below 50%); higher = less potent
How it was run: as §1

S462 = assay: relative IC50 (inflection point of fitted dose-response curve, CellTiter-Glo viability, 72 h; top asymptote may be below 50% inhibition); higher = less potent
How it was run: as §2

SMILES	relative IC50 (HSC1 [1]) [nM]	relative IC50 (HSC2 [2]) [nM]	relative IC50 (ST8814 [3]) [nM]	relative IC50 (STS26T [4]) [nM]	relative IC50 (HS-PSS [5]) [nM]	relative IC50 (HS-Sch-2) [nM]	relative IC50 (HSC1 [6]) [nM]	relative IC50 (HSC2 [7]) [nM]	relative IC50 (S1507-2) [nM]	relative IC50 (ST8814 [8]) [nM]	relative IC50 (STS26T [9]) [nM]	relative IC50 (YST-1) [nM]	relative IC50 (HS-PSS [10]) [nM]	relative IC50 (S462) [nM]
Cc1ccc(-n2nc(C(C)(C)C)cc2NC(=O)Nc2ccc(OCCN3CCOCC3)c3ccccc23)cc1 [Doramapimod]	> 10000	> 10000	> 10000	> 10000	1640	2330	3010	1760	> 10000	> 10000	> 10000	667		
Cc1cnc(NC(=O)Nc2cc(Br)c(C)cc2OC[C@@H]2CNCCO2)cn1 [Rabusertib]		> 1000	> 1000	330		302			236	> 1000	189	242	> 1000	319
Cc1cnc(Nc2ccc(F)cc2Cl)nc1-c1c[nH]c(C(=O)N[C@H](CO)c2cccc(Cl)c2)c1 [VX-11E]	874	651	816	896	756	367	750	696	966	905	830	> 2500	> 2500	
CC(C)N(CCCNC(=O)Nc1ccc(C(C)(C)C)cc1)C[C@H]1O[C@@H](n2cc(Br)c3c(N)ncnc32)[C@H](O)[C@@H]1O [SGC0946]	> 10000	> 10000	3070	> 10000	1940	3000			2090	3450	> 10000	3670	2490	
Cc1ccc(NC(=O)c2ccc(CN3CCN(C)CC3)cc2)cc1Nc1nccc(-c2cccnc2)n1 [Imatinib]	> 10000	> 10000	3580	> 10000	2380	3190	> 10000	> 10000	1960	3530		1950		
Nc1nc2[nH]cnc2c(=S)[nH]1 [Thioguanine]	> 10000	> 10000		2920	1450	1120		> 10000	2270	642	717	1370	> 10000	1200
CC[C@@H]1C(=O)OC[C@@H]1Cc1cncn1C [Pilocarpine]	> 40000	> 40000	> 40000	> 40000	> 40000		> 40000	> 40000		> 40000	> 40000	> 40000	> 40000	> 40000
